Results as given in patent publication US12599676B2, “Cytotoxic imidazo[1,2-A]pyridine compounds and their use in therapy” (MyricX Pharma Limited, priority 2022, dated 2026).

Columns and labels:
[1] = system: Caco-2 cells; assay: Caco-2 cell permeability assay; type: in vitro ADME; details: apical to basal Papp, 2 μM, pH 7.4, 2.5 h
Experimental: (§1) Certain Example compounds and Comparative Example 1 were tested for their apical to basal (AB) and basal to apical (BA) permeability in Caco-2 cells.
(§2) Cell Culture: Caco-2 cells were grown for 10 days in 96-well plates in HBSS buffer containing 10 mM HEPES. Both the apical and basal pH was buffered at pH 7.4. The apical/basal volumes were 75 μl and 250 μl respectively. The incubation time was 2.5 h at 37° C. (without shaking) under 5% CO2 & 95% relative humidity.
(§3) Cell Seeding: Cells were seeded at a density of 18750 cells/well (membrane area=0.0804 cm^2) in a 96 well plate.
(§4) AB Assay: 75 μl of cell suspension was added at a density 2.5×10^5 cells/ml to the apical wells. 40 ml media was added to the feeder tray. The plates were placed in the incubator (37° C., 5% CO2 and controlled humidity). The Caco-2 cells were grown for 10 days with a media change on every alternate day.
(§5) BA Assay: 25 μl of cell suspension was added at a density of 7.5×10^5 cells/ml to the bottom side (keeping the plate upside down) of apical wells. The plate (upside down position) was placed in the incubator (37° C., 5% CO2 and 95% Relative humidity) for 2 h. The plate was turned right side up. 75 μl media was added to the apical wells and 40 ml media to the feeder tray.
(§6) Permeablity Assay: The apical and basal wells were washed with buffer (pH 7.4) and 250 μl buffer was added to the wells of the basal plate. 75 μl of compound solution (2 μM, dissolved in water with 1% DMSO) was transferred to the apical wells (n=2). The apical plate was placed onto the basal plate. The lid was placed on to prevent evaporation. The assembly was incubated at 37° C. for 2.5 h (without shaking) under 5% CO2 and 95% relative humidity. After incubation the apical plate was separated from the basal plate. Aliquots were taken out from the acceptor and donor wells, diluted and quantified using LC-MS/MS along with initial donor samples.
(§7) Membrane Integrity Test: Solution in the apical wells was discarded by inverting the plate and soaking onto tissue paper. 250 μl buffer (pH 7.4) was added to each well of basal plate and 75 μl of Lucifer Yellow (LY; 0.1 mg/ml) in buffer (pH 7.4) to the wells of apical plate. The apical plate was placed onto the basal plate and the lid used to prevent evaporation. The assembly was incubated at 37° C. for 1 h (without shaking) under 5% CO2 and 95% relative humidity. The apical plate was separated from the basal plate. Fluorescence (Ex: 432 nm, Em: 530 nm) of aliquots (100 ul) was measured from basal wells. Fluorescence of 100 μl buffer (pH 7.4) and 100 μl LY(0.1 mg/ml) was also measured. Wells having more than 1% fluorescence intensity with respect to 0.1 mg/ml LY were considered non-integrated membrane. Such wells, if any, were not considered for permeability calculation.
(§8) Calculation: Drug was detected and quantified by LC-MS/MS. Data generated took the form of an apparent permeability (Papp) value. Papp=[Va/(AreaxTime)]×(LC-MS Area of Acceptor sample×Sample dilution factor/LC-MS Area of Initial Donor). Va=Volume of Acceptor Well (in ml)=0.25, Vd=Volume of Donor Well (in ml)=0.075, Area=Surface area of the membrane (cm2)=0.0804, Time=Time of incubation (sec)=9000 Results: The results of the assay are shown in Table 3 below.

[2] = Caco-2 cell permeability assay; type: in vitro ADME; details: human, Caco-2, pH 7.4, basal to apical Papp, pH 7.4, 2.5 h
Experimental: as §1, §2, §3, §4, §5, §6, §7, §8

[3] = system: SU-DHL-10 cell line (human B cell lymphoma); assay: Cell cytotoxicity in SU-DHL-10 cell line (CellTiter-Glo); type: cell-based; details: Homo sapiens, SU-DHL10, 72 h, 72 h treatment, CTG
Experimental: Certain Example compounds of the invention and Comparator Compound 1 were tested in the SU-DHL-10 cell line (human B cell lymphoma). Compounds which show efficacy in this assay are expected to be useful as agents for treating or preventing hyperproliferative disorders such as cancer.
(§9) Cells were seeded in 96-well microplates and treated with compounds or cisplatin (as a positive control) at 9 increasing concentrations in technical triplicate. […] On day 1, 90 μL of various cell suspensions with the number of cells ranging from 5000-8000 cells/well were seeded into wells of a 96-well plate (Corning). The number of cells to be seeded was previously determined. • 2. All 96-wells plates with cells were placed in an incubator overnight at 37° C. with 5% CO2. • 3. On day 2, cells were observed under a microscope ensuring the cells treated with vehicle control were in good condition. • 4. A dilution series of the test compounds and cisplatin were prepared at 10× the final concentrations required. 10 μL/well of 10× compound solution was added to the corresponding plates. The final volume was 100 μL/well for all the plates. Final DMSO concentration was 0.1%. • 5. On day 5 (after 72 hours of incubation), 50 μL of CTG reagent was added to each well. • 6. Contents were mixed for 5 minutes on an orbital shaker to facilitate cell lysis. • 7. The plate was allowed to incubate at room temperature for 10 minutes to stabilize luminescent signals.
Luminescence was recorded using an EnVision Multi Label Reader. Data analysis was performed using GraphPad Prism 8.0.
To calculate IC50, a concentration-response curve was generated using a nonlinear regression model with a sigmoidal concentration response. The formula for calculating the % of viable cells was shown below, and the IC50s are automatically generated by GraphPad Prism 8.0.
(LumTest article=luminescence in test article treated well; LumNone treated=luminescence in vehicle treated well; LumMedium control=luminescence in a well containing only medium and no cells; LumNone treated-LumMedium control was set as 100%)

[4] = system: LYXFDLBC4009 (patient-derived xenograft lymphoma); assay: Cell cytotoxicity CellTiter-Glo, LYXFDLBC4009; type: cell-based
Experimental: as §9
(§10) The effects of Comparator Compound 1 and certain Example compounds on the viability of various cell lines (LYXFDLBC2835, LYXFDLBC4009 and LYXFDLBC411 (patient-derived xenograft lymphoma), HT1080 (human fibrosarcoma), CA46 (human B cell lymphoma), RKO (human colon carcinoma), NCI-H1703 (human lung squamous cell carcinoma), MX-1 (human breast carcinoma), DU4475 (human breast carcinoma), LU2511 (human lung large cell undifferentiated carcinoma), LU0884 (human lung squamous cell carcinoma)), Panc-1 (human pancreatic carcinoma), MCF-7 (human breast cancer), SW480 (human colon adenocarcinoma) and HCC1806 (human breast ductal carcinoma) were performed using the standard CellTiter-Glo assay (CTG, Promega) as described in Biological Example 2. Compounds which show efficacy in these assays are expected to be useful as agents for treating or preventing hyperproliferative disorders such as cancer.

[5] = system: LYXFDLBC2835 (patient-derived xenograft lymphoma); assay: Cell cytotoxicity CellTiter-Glo, LYXFDLBC2835; type: cell-based
Experimental: as §9, §10

[6] = system: DOHH-2 tumor cells; assay: Subcutaneous xenograft DOHH-2 lymphoma model; type: in vivo, CB17/SCID mice; details: oral dosing 12.5 or 25 mg/kg once a day for 9 days
Experimental: The in vivo efficacy of certain Example compounds was assessed in a subcutaneous xenograft DOHH-2 Lymphoma Model using 10 female 6-8 week old CB17/SCID Mice. Each mouse was inoculated subcutaneously at the right front region with DOHH-2 tumor cells (5×10^6) in 0.1 ml of PBS mixed with matrigel (1:1 PBS:matrigel) for tumor development. The test compound administration started once the mean tumor size reached approximately 100-150 mm^3.
Compounds were administered either IP (vehicle 10 mM sodium phosphate+0.2% Tween-80 (pH7.4) or orally (vehicle 15 Na2HPO4 buffer (10 mM) (pH 4.5)+0.2% tween 80). Tumor volumes were measured in two dimensions using a caliper, and the volume expressed in mm^3 using the formula: V=(L×W×W)/2, where V is tumor volume, L is tumor length (the longest tumor dimension) and W is tumor width (the longest tumor dimension perpendicular to L).
Mice were dosed with Example 21 orally (12.5 or 25 mg/kg) once a day for 9 consecutive days (FIG. 3). Example 5 was dosed intraperitoneally (7 or 20 mg/kg) in a cycle consisting of administration QD for three days followed by a three day no-dosing period followed by QD dosing for a further three days (FIG. 4). Example 12 was dosed intraperitoneally (0.7 or 2 mg/kg) in a cycle consisting of administration QD for three days followed by a three day no-dosing period followed by QD dosing for a further three days (FIG. 5). In a separate study Example 12 was dosed at […] in a cycle consisting of administration QD for two days followed by either four or six day no-dosing period, and this cycle was repeated three times (FIG. 6).

[7] = system: LYXFDLBC4113 (patient-derived xenograft lymphoma); assay: Cell cytotoxicity CellTiter-Glo, LYXFDLBC4113; type: cell-based
Experimental: as §9, §10

[8] = system: LNCaP tumour cells; assay: LNCaP prostate cancer xenograft model; type: in vivo, NOD SCID mice; details: for Day 28 tumour volume (mm^3, mean ± SEM) / Tumour growth inhibition (TGI, %): IV, Q7D (×3); for Tumour growth inhibition (TGI, %): day 28
From the text: A total of 84 male NOD SCID mice aged 5-8 weeks and weighing 25-30 g were used for the study.

[9] = system: VcaP tumour cells; assay: VCaP prostate cancer xenograft model; type: in vivo, CB17/SCID mice
From the text: All mice received two doses of test agent, on Study Day 1 and Study Day 8. The study was terminated on Study Day 30.

[10] = system: JIMT-1 tumour cells; assay: JIMT-1 breast cancer xenograft model; type: in vivo, NOD/SCID mice
Experimental: 80 mice were assigned to 8 treatment groups when tumour volumes averaged ˜160.66 mm^3 on Study Day 0. Dosing commenced the following day and all animals were dosed intravenously with ADC Example 3, sacituzumab govitecan or unconjugated sacituzumab. The study was terminated on the Study Day 60.

[11] = 2.5 mg/kg IV QW × 2 weeks (Group 5 also got ADC Example 3 5 mg/kg on Day 27)
[12] = 5 mg/kg IV QW × 2 weeks (Group 4 also got ADC Example 3 5 mg/kg on Day 27)

Molecule	IC50 [3] [nM]	LNCaP tumour volume compared to the vehicle control ([8]; 5 mg/kg)	Day 28 tumour volume (mm^3, mean ± SEM) ([8]; 5 mg/kg) [mm^3]	Tumour growth inhibition (TGI, %) ([8]; 5 mg/kg) [%]	LNCaP tumour volume compared to the vehicle control ([8]; 10 mg/kg)	Day 28 tumour volume (mm^3, mean ± SEM) ([8]; 10 mg/kg) [mm^3]	Tumour growth inhibition (TGI, %) ([8]; 10 mg/kg) [%]	ΔTGI (Study Day 17) ([9]; 2.5 mg/kg IV QW × 2 weeks) [%]	ΔTGI (Study Day 17) ([9]; 5 mg/kg IV QW × 2 weeks) [%]	ΔTGI (Study Day 28) [10, 11] [%]	ΔTGI (Study Day 28) [10, 12] [%]	also measured
CNCc1cnc2ccc(-c3ccc(F)cc3OCCc3c(C(C)(C)O)nn(C)c3C)cn12 [Example 18, 2-(4-(2-(5-fluoro-2-(3-((methylamino)methyl)imidazo[1,2-a]pyridin-6-yl)phenoxy)ethyl)-1,5-dimethyl-1H-pyrazol-3-yl)propan-2-ol]	5.3	–	–	–	–	–	–	–	–	–	–	Caco-2 A-B [1]: 0.3 ×10⁻⁶ cm/s; Papp B→A at 2.5 h, 2 μM [2]: 21.1 ×10⁻⁶ cm/s
CNCc1cnc2ccc(-c3ccc(F)c(F)c3OCCc3c(C(C)(C)O)nn(C)c3C)cn12 [Example 21, 2-(4-(2-(2,3-difluoro-6-(3-((methylamino)methyl)imidazo[1,2-a]pyridin-6-yl)phenoxy)ethyl)-1,5-dimethyl-1H-pyrazol-3-yl)propan-2-ol]	0.4	–	–	–	–	–	–	–	–	–	–	IC50 [4]: 35 nM; IC50 [5]: 54 nM; tumour volume compared to vehicle [6]: significant reduction in tumour volume or reduced growth in tumour volume; IC50 [7]: 23 nM
ifinatamab	–	no significant effect	551.4 ± 73.1	30.6	no significant effect	666.56 ± 103.2	13.0	8.47	12.44	–	–	tumour volumes compared to vehicle alone (Group 1) ([9]; all concentrations tested (ADC Example 4: 2.5, 5, 10 mg/kg; unconjugated ifinatamab: 5 and 2.5 mg/kg)): no significant difference
sacituzumab	–	–	–	–	–	–	–	–	–	12.11	14.44	tumour volume compared to vehicle alone (Group 1) ([10]; 2.5 mg/kg (Group 3), p=0.0586): no significant difference; tumour volume compared to vehicle alone (Group 1) ([10]; 5 mg/kg (Group 2), p=0.0028): significant decrease; tumour volume, 5 mg/kg (Group 2) versus 2.5 mg/kg (Group 3) ([10]; p=0.9837): no significant difference
sacituzumab govitecan	–	–	–	–	–	–	–	–	–	13.13	23.39	tumour volume compared to Groups 2 and 3 (unconjugated sacituzumab) ([10]; 2.5 mg/kg (Group 5)): no significant difference; tumour volume compared to unconjugated sacituzumab Group 2 (5 mg/kg) and Group 3 (2.5 mg/kg) ([10]; 5 mg/kg (Group 4)): significant decrease; tumour volumes compared to vehicle alone (Group 1) ([10]; all concentrations tested (ADC Example 3: 2.5, 5, 10 mg/kg; sacituzumab govitecan: 5 and 2.5 mg/kg)): significant decrease
ifinatamab-DXd: ifinatamab-deruxtecan, comparator ADC in prostate xenograft models (conjugate, chains of the INN, looked up, deruxtecan payload, ifinatamab-deruxtecan, comparator ADC in prostate xenograft models) VH: QVQLVQSGAEVKKPGSSVKVSCKASGYTFTNYVMHWVRQAPGQGLEWMGYINPYNDDVKYNEKFKGRVTITADESTSTAYMELSSLRSEDTAVYYCARWGYYGSPLYYFDYWGQGTLVTVSS VL: EIVLTQSPATLSLSPGERATLSCRASSRLIYMHWYQQKPGQAPRPLIYATSNLASGIPARFSGSGSGTDFTLTISSLEPEDFAVYYCQQWNSNPPTFGQGTKVEIK	–	slowed the growth of LNCaP tumours to a lesser extent	364.6 ± 51.7	58.8	significantly reduced the mean volume	259.5 ± 50.3	75.0	5.24	2.86	–	–	tumour volume compared to Groups 2, 3 and 4 ([9]; 2.5 mg/kg (Group 5)): no significant difference; tumour volume compared to vehicle alone (Group 1) ([9]; 2.5 mg/kg (Group 5)): no significant difference; tumour volume compared to unconjugated ifinatamab 5 mg/kg and 2.5 mg/kg ([9]; 5 mg/kg (Group 4)): significantly higher tumour volume; tumour volume compared to vehicle alone (Group 1) ([9]; 5 mg/kg (Group 4)): significantly higher tumour volume
